Laboratory results taken from the supplement of paper PMC10307832.

Key:
Test in all cases: relative viability (nuclei count vs DMSO), 5 days (fraction); higher = more cells survive
Cediranib + Trametinib = compound: COc1cc2c(Oc3ccc4[nH]c(C)cc4c3F)ncnc2cc1OCCCN1CCCC1 [Cediranib] + CC(=O)Nc1cccc(-n2c(=O)n(C3CC3)c(=O)c3c(Nc4ccc(I)cc4F)n(C)c(=O)c(C)c32)c1 [Trametinib] (partner 0.02 µM)
How it was run: (§1)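 A single step with final 0.05% Triton X-100, 1% formaldehyde and 1 ug/ml Hoechst fixed the cells and stained nuclei 5 days after treatment. Lung cancer cell lines in 1536-well plates had been treated by pin tool the day after seeding with one drug alone or a fixed anchor-drug dose plus five library-drug doses (not always all listed) in √10 steps, and nuclei were counted on 4× images. Relative viability is the ratio of nuclei in treated wells to nuclei in vehicle wells, taken as the median of duplicate plates.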

Decitabine + Linsitinib = compound: Nc1ncn([C@H]2C[C@H](O)[C@@H](CO)O2)c(=O)n1 [Decitabine] + C[C@]1(O)C[C@@H](c2nc(-c3ccc4ccc(-c5ccccc5)nc4c3)c3c(N)nccn32)C1 [Linsitinib] (partner 1 µM)
How it was run: as §1

Halofuginone + OSI-027 = compound: O=C(C[C@H]1NCCC[C@@H]1O)Cn1cnc2cc(Br)c(Cl)cc2c1=O (racemic) [Halofuginone] + COc1cccc2cc(-c3nc([C@H]4CC[C@H](C(=O)O)CC4)n4ncnc(N)c34)[nH]c12 [OSI-027] (partner 0.5 µM)
How it was run: as §1

[1] = compound: O=C(C[C@H]1NCCC[C@@H]1O)Cn1cnc2cc(Br)c(Cl)cc2c1=O (racemic) [Halofuginone] + O=C(CCCCCCC(=O)Nc1ccccc1)NO [Vorinostat] (partner 1 µM)
How it was run: as §1

Cell Line | relative viability (Cediranib + Trametinib; first compound 0.04 µM) | relative viability (Cediranib + Trametinib; first compound 0.1265 µM) | relative viability (Cediranib + Trametinib; first compound 0.4 µM) | relative viability (Cediranib + Trametinib; first compound 1.265 µM) | relative viability (Cediranib + Trametinib; first compound 4 µM) | relative viability (Decitabine + Linsitinib; first compound 0.04 µM) | relative viability (Decitabine + Linsitinib; first compound 0.1265 µM) | relative viability (Decitabine + Linsitinib; first compound 0.4 µM) | relative viability (Decitabine + Linsitinib; first compound 1.265 µM) | relative viability (Decitabine + Linsitinib; first compound 4 µM) | relative viability (Halofuginone + OSI-027; first compound 0.001 µM) | relative viability (Halofuginone + OSI-027; first compound 0.003162 µM) | relative viability (Halofuginone + OSI-027; first compound 0.01 µM) | relative viability (Halofuginone + OSI-027; first compound 0.03162 µM) | relative viability (Halofuginone + OSI-027; first compound 0.1 µM) | relative viability ([1]; first compound 0.001 µM) | relative viability ([1]; first compound 0.003162 µM) | relative viability ([1]; first compound 0.01 µM) | relative viability ([1]; first compound 0.03162 µM) | relative viability ([1]; first compound 0.1 µM)
RERF-LC-KJ | 0.875 | 0.902 | 0.839 | 0.762 | 0.985 | 0.836 | 0.763 | 0.239 | 0.677 | 0.637 | 0.618 | 0.609 | 0.537 | 0.565 | 0.488 | 0.8 | 0.675 | 0.605 | 0.718 | 0.604
NCI-H1755 | 0.8 | 0.804 | 0.709 | 0.81 | 0.783 | 0.936 | 0.948 | 0.915 | 0.688 | 0.429 | 0.76 | 0.788 | 0.677 | 0.753 | 0.627 | 0.758 | 0.838 | 0.722 | 0.768 | 0.669
PC-14 | 0.862 | 0.664 | 0.66 | 0.582 | 0.519 | – | 0.784 | 0.268 | 0.283 | 0.23 | 0.828 | 0.962 | 0.704 | 0.471 | 0.0328 | 0.803 | 0.626 | 0.646 | 0.292 | 0.0442
NCI-H322M | 0.475 | 0.489 | 0.526 | 0.528 | 0.568 | 0.773 | 0.844 | 0.737 | 0.497 | 0.472 | 0.596 | 0.652 | 0.488 | 0.49 | 0.346 | 0.935 | 0.967 | 0.811 | 0.865 | 0.561
NCI-H1666 | 0.87 | 0.655 | 0.838 | 0.844 | 0.877 | 0.816 | 0.706 | 0.672 | 0.629 | 0.689 | 1.01 | 0.869 | 0.766 | 0.955 | 0.852 | 1.14 | 0.966 | 0.999 | 0.984 | 0.955
A-427 | 0.747 | – | 0.717 | 0.684 | 0.737 | 0.807 | 0.674 | 0.446 | 0.368 | 0.275 | 0.472 | 0.483 | 0.385 | 0.445 | 0.419 | 0.89 | 0.891 | 0.828 | 0.827 | 0.807
NCI-H1651 | 0.826 | 0.874 | 0.846 | 0.855 | 0.821 | 0.865 | 0.888 | 0.888 | 0.839 | 0.733 | 0.825 | 0.701 | 0.655 | 0.665 | 0.382 | 0.528 | 0.528 | 0.572 | 0.548 | 0.59
NCI-H1793 | 0.449 | 0.446 | 0.407 | 0.435 | 0.432 | 0.848 | 0.947 | 0.854 | 0.5 | 0.434 | 0.299 | 0.253 | 0.297 | 0.288 | 0.196 | 0.898 | 0.672 | 0.664 | 0.846 | 0.497
